The source of these data is patent publication US4885275A, “Vancomycin-HCL solutions and the lyophilization thereof” (Eli Lilly and Company, priority 1987, dated 1989).

Counter-ions that a name gives are not always drawn.

Broadly, the Solubility is the concentration that dissolves in the medium under given conditions.

Data set [1] in a line: Gel inhibition in concentrated aqueous vancomycin.HCl solutions. It is filed as physicochemical. More on the design: key: G = gel formation; NG = No gel formation. To be noted: test compound 10% v/v in aqueous vancomycin.HCl 20% w/v, pH about 3.2, Waring blender high speed 3 minutes. As to the method: The experiments were carried out to determine the effect on gel formation in aqueous solutions of vancomycin HCl at a concentration of 20% w/v. The solutions were prepared as follows. An aqueous vehicle containing the test compound in an amount sufficient to provide 10% v/v in the final solution was prepared with water. Vancomycin-free base was added to the aqueous vehicle in an amount sufficient to provide a 20% w/v concentration in the final solution. The slurry of base in the aqueous vehicle was treated with 20% hydrochloric acid to form vancomycin.HCl salt and to adjust the pH to about 3.2. The solution which formed was kept covered to avoid loss of the test compound and water was added to the final volume. The solution was blended in a Waring blender at high speed for 3 minutes and then transferred to clear bottles to observe for gel formation.

A short description of data set [2]: Gel formation of aqueous vancomycin hydrochloride solutions. As to conditions: particularly when agitated by stirring, shaking or blending. It is filed as physicochemical.
For data set [3] the following is noted: room temperature; cited from earlier work.
Data set [4] in a line: Vancomycin.HCl solubility in gel inhibitory compounds (UV or HPLC assay).
Method: The solubility of vancomycin.HCl in some of the gel inhibitory compounds was determined as follows. A two-gram quantity of chromatographically purified vancomycin hydrochloride was added to 100 ml of each compound under consideration. Fresh compound was used when possible to minimize the water content. […] The mixtures were stirred at a moderate rate for 4 hours, with sample aliquots removed at timepoints of 10 minutes, 2 hours and 4 hours. The mixtures were then allowed to stand overnight. A final aliquot was taken at the 20- to 24-hour timepoint. The sample aliquots were assayed by UV absorption measurements or HPLC with UV detection.
UV absorption at 280 nm was used to measure the concentration of vancomycin in the sample solutions made with the transparent solvents. Each sample was filtered through medium-pore filter paper and diluted with water to provide an absorption less than 1.0 A. The remaining compounds, acetone and ethyl acetate, required solvent removal before the measurement step. After filtration, sample aliquots were dried under nitrogen and reconstituted with an aqueous buffer for assay by HPLC. The propylene glycol sample were also assayed by HPLC after appropriate dilution without a drying step.

With `CC(O)CO` (centres unmarked) [Propylene glycol], the “Test Result (gel formation)” value in data set [1] is reported as “NG”.
As for `CCO` [Ethanol], the “Test Result (gel formation)” value in data set [1] is on record as “NG”.
Take `OCC(O)CO` [Glycerin]: in data set [1], the “Test Result (gel formation)” value was “G”.
On the same count and under the same terms, for `CCC(C)=O` [Methyl ethyl ketone] the value was “NG”.
On to `CC(C)=O` [Acetone], for which the “Test Result (gel formation)” value in data set [1] is recorded as “NG”.
Same read-out and setting: for `CCOC(C)=O` [Ethyl acetate] the value was “G”; for `CO` [Methanol], “G”; for `CC(C)O` [Isopropanol], “NG”.
For the compound `CN[C@H](CC(C)C)C(=O)N[C@H]1C(=O)N[C@@H](CC(N)=O)C(=O)N[C@H]2C(=O)N[C@H]3C(=O)N[C@H](C(=O)N[C@H](C(=O)O)c4cc(O)cc(O)c4-c4cc3ccc4O)[C@H](O)c3ccc(c(Cl)c3)Oc3cc2cc(c3O[C@@H]2O[C@H](CO)[C@@H](O)[C@H](O)[C@H]2O[C@H]2C[C@](C)(N)[C@H](O)[C@H](C)O2)Oc2ccc(cc2Cl)[C@H]1O` [Vancomycin.HCl, vancomycin hydrochloride], the “concentration in water above which solutions form gels” value in data set [2] was “above 12 % w/v”. For the same compound, the solubility in water result in data set [3] is given as “about 200 mg/ml”. Further, the Solubility was under 10 µg/mL in data set [4] (in acetone, 10 min, HPLC assay); under 10 µg/mL in data set [4] (in acetone, 2 hrs, HPLC assay); under 10 µg/mL in data set [4] (in acetone, 4 hrs, HPLC assay); under 10 µg/mL in data set [4] (in acetone, 20 hrs, HPLC assay); under 10 µg/mL in data set [4] (in ethyl acetate, 10 min, HPLC assay); under 10 µg/mL in data set [4] (in ethyl acetate, 2 hrs, HPLC assay). Moreover, the Solubility in data set [4] (in ethyl acetate, 4 hrs, HPLC assay) was under 10 µg/mL; in data set [4] (in ethyl acetate, 20 hrs, HPLC assay), under 10 µg/mL; in data set [4] (in isopropanol, 10 min, UV assay), 40 µg/mL; in data set [4] (in isopropanol, 2 hrs, UV assay), 40 µg/mL; in data set [4] (in isopropanol, 4 hrs, UV assay), 100 µg/mL; in data set [4] (in isopropanol, 20 hrs, UV assay), 70 µg/mL. Besides, the Solubility in data set [4] (in methanol, 10 min, UV assay) was determined as 5300 µg/mL; in data set [4] (in methanol, 2 hrs, UV assay), 3700 µg/mL; in data set [4] (in methanol, 4 hrs, UV assay) it was 3100 µg/mL; in data set [4] (in methanol, 20 hrs, UV assay), 2400 µg/mL; in data set [4] (in propylene glycol, 10 min, HPLC assay), 3000 µg/mL. Also, the “concentration at which gel forms in ethyl alcohol” value in data set [4] (in ethyl alcohol (non-aqueous)) is reported as “about 2 mg/ml”.
Take `CC(=O)OC(C)C` [Isopropyl acetate]: the “Test Result (gel formation)” value in data set [1] is on record as “NG”.
